# Patent publication US11117900B2 (Vertex Pharmaceuticals Incorporated, priority 2012, dated 2021)
# Test system: HCT116 colorectal cancer cells
# Assay: Cisplatin sensitization assay (96 h MTS cell viability);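 further: compound concentration needed to lower the IC50 of Cisplatin alone by a set fold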
# Assay type: cell-based
# Details: Cisplatin sensitization value
# Method in brief: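 HCT116 cells were dosed simultaneously with compound and cisplatin as a full matrix of 2-fold serial dilutions from 10 μM top final concentration. Incubation was 96 h at 37° C., 5% CO2, followed by 1 h with MTS reagent for the viability read-out. Sensitization values were binned into +++, ++ and + categories.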
row,Compound,Cisplatin Sensitization Assay
1,"Nc1nn2cc(Cl)cnc2c1C(=O)Nc1cnccc1N1CCN(C2COC2)CC1 [I-N-58, 2-amino-6-chloro-N-(4-(4-(oxetan-3-yl)piperazin-1-yl)pyridin-3-yl)pyrazolo[1,5-a]pyrimidine-3-carboxamide]",++ (Compounds with a Cisplatin sensitization value >0.02 μM but <0.2 μM are marked with “++.”)
2,"CN1CCN(c2ccncc2NC(=O)c2c(N)nn3cc(Cl)cnc23)CC1 [I-N-59, 2-amino-6-chloro-N-(4-(4-methylpiperazin-1-yl)pyridin-3-yl)pyrazolo[1,5-a]pyrimidine-3-carboxamide]",++ (Compounds with a Cisplatin sensitization value >0.02 μM but <0.2 μM are marked with “++.”)
3,"COCCN1CCN(c2ccncc2NC(=O)c2c(N)nn3cc(Cl)cnc23)CC1 [I-N-60, 2-amino-6-chloro-N-(4-(4-(2-methoxyethyl)piperazin-1-yl)pyridin-3-yl)pyrazolo[1,5-a]pyrimidine-3-carboxamide]",+++ (Compounds with a Cisplatin sensitization value of <0.02 μM are marked with “+++.”)
4,"CN1CCN2CCN(c3ccncc3NC(=O)c3c(N)nn4cc(Cl)cnc34)CC2C1 (centres unmarked) [I-N-61, 2-amino-6-chloro-N-(4-(8-methylhexahydro-1H-pyrazino[1,2-a]pyrazin-2(6H)-yl)pyridin-3-yl)pyrazolo[1,5-a]pyrimidine-3-carboxamide]",+++ (Compounds with a Cisplatin sensitization value of <0.02 μM are marked with “+++.”)
5,"CC1(N2CCN(c3ccncc3NC(=O)c3c(N)nn4cc(F)cnc34)CC2)COC1 [I-N-62, 2-amino-6-fluoro-N-(4-(4-(3-methyloxetan-3-yl)piperazin-1-yl)pyridin-3-yl)pyrazolo[1,5-a]pyrimidine-3-carboxamide]",++ (Compounds with a Cisplatin sensitization value >0.02 μM but <0.2 μM are marked with “++.”)
6,"CN1CCN(c2ccncc2NC(=O)c2c(N)nn3cc(Cl)cnc23)CC1CO (centres unmarked) [I-N-63, 2-amino-6-chloro-N-(4-(3-(hydroxymethyl)-4-methylpiperazin-1-yl)pyridin-3-yl)pyrazolo[1,5-a]pyrimidine-3-carboxamide]",++ (Compounds with a Cisplatin sensitization value >0.02 μM but <0.2 μM are marked with “++.”)
7,"Nc1nn2cc(Cl)cnc2c1C(=O)Nc1cnccc1N1CCN(C2CC2)CC1 [I-N-64, 2-amino-6-chloro-N-(4-(4-cyclopropylpiperazin-1-yl)pyridin-3-yl)pyrazolo[1,5-a]pyrimidine-3-carboxamide]",+++ (Compounds with a Cisplatin sensitization value of <0.02 μM are marked with “+++.”)
8,"Nc1nn2cc(Cl)cnc2c1C(=O)Nc1cnccc1N1CCN2CCC[C@@H]2C1 [I-N-65, (R)-2-amino-6-chloro-N-(4-(hexahydropyrrolo[1,2-a]pyrazin-2(1H)-yl)pyridin-3-yl)pyrazolo[1,5-a]pyrimidine-3-carboxamide]",+ (Compounds with a Cisplatin sensitization value >0.2 μM but <5 μM are marked with “+.”)
9,"CC1(O)CCN(c2ccncc2NC(=O)c2c(N)nn3cc(Cl)cnc23)CC1 [I-N-66, 2-amino-6-chloro-N-(4-(4-hydroxy-4-methylpiperidin-1-yl)pyridin-3-yl)pyrazolo[1,5-a]pyrimidine-3-carboxamide]",+++ (Compounds with a Cisplatin sensitization value of <0.02 μM are marked with “+++.”)
10,"Nc1nn2cc(Cl)cnc2c1C(=O)Nc1cnccc1N1CCN(CC(F)(F)F)CC1 [I-N-67, 2-amino-6-chloro-N-(4-(4-(2,2,2-trifluoroethyl)piperazin-1-yl)pyridin-3-yl)pyrazolo[1,5-a]pyrimidine-3-carboxamide]",+++ (Compounds with a Cisplatin sensitization value of <0.02 μM are marked with “+++.”)
11,"Nc1nn2cc(Cl)cnc2c1C(=O)Nc1cnccc1N1CC[S+]([O-])CC1 [I-N-68, 2-amino-6-chloro-N-(4-(1-oxidothiomorpholino)pyridin-3-yl)pyrazolo[1,5-a]pyrimidine-3-carboxamide]",+++ (Compounds with a Cisplatin sensitization value of <0.02 μM are marked with “+++.”)
12,"CC(C)(O)C1CCN(c2ccncc2NC(=O)c2c(N)nn3cc(Cl)cnc23)CC1 [I-N-69, 2-amino-6-chloro-N-(4-(4-(2-hydroxypropan-2-yl)piperidin-1-yl)pyridin-3-yl)pyrazolo[1,5-a]pyrimidine-3-carboxamide]",+++ (Compounds with a Cisplatin sensitization value of <0.02 μM are marked with “+++.”)
13,"Nc1nn2cc(Cl)cnc2c1C(=O)Nc1cnccc1N1CCNC(C(F)(F)F)C1 (centres unmarked) [I-N-70, 2-amino-6-chloro-N-(4-(3-(trifluoromethyl)piperazin-1-yl)pyridin-3-yl)pyrazolo[1,5-a]pyrimidine-3-carboxamide]",++ (Compounds with a Cisplatin sensitization value >0.02 μM but <0.2 μM are marked with “++.”)
14,"Nc1nn2cc(Cl)cnc2c1C(=O)Nc1cnccc1N1CCN2CCC[C@H]2C1 [I-N-71, (S)-2-amino-6-chloro-N-(4-(hexahydropyrrolo[1,2-a]pyrazin-2(1H)-yl)pyridin-3-yl)pyrazolo[1,5-a]pyrimidine-3-carboxamide]",+++ (Compounds with a Cisplatin sensitization value of <0.02 μM are marked with “+++.”)
15,"CC1CN(C)CCN1c1ccncc1NC(=O)c1c(N)nn2cc(Cl)cnc12 (centres unmarked) [I-N-72, 2-amino-6-chloro-N-(4-(2,4-dimethylpiperazin-1-yl)pyridin-3-yl)pyrazolo[1,5-a]pyrimidine-3-carboxamide]",+++ (Compounds with a Cisplatin sensitization value of <0.02 μM are marked with “+++.”)
16,"COC1CCN(c2ccncc2NC(=O)c2c(N)nn3cc(Cl)cnc23)CC1 [I-N-73, 2-amino-6-chloro-N-(4-(4-methoxypiperidin-1-yl)pyridin-3-yl)pyrazolo[1,5-a]pyrimidine-3-carboxamide]",+++ (Compounds with a Cisplatin sensitization value of <0.02 μM are marked with “+++.”)
17,"COC(=O)C1CCN(c2ccncc2NC(=O)c2c(N)nn3cc(Cl)cnc23)CC1 [I-N-74, methyl-1-(3-(2-amino-6-chloropyrazolo[1,5-a]pyrimidine-3-carboxamido)pyridin-4-yl)piperidine-4-carboxylate]",+++ (Compounds with a Cisplatin sensitization value of <0.02 μM are marked with “+++.”)
18,"Nc1nn2cc(Cl)cnc2c1C(=O)Nc1cnccc1N1CCn2cncc2C1 [I-N-75, 2-amino-6-chloro-N-(4-(5,6-dihydroimidazo[1,5-a]pyrazin-7(8H)-yl)pyridin-3-yl)pyrazolo[1,5-a]pyrimidine-3-carboxamide]",+++ (Compounds with a Cisplatin sensitization value of <0.02 μM are marked with “+++.”)
19,"CN1CCN(c2ccncc2NC(=O)c2c(N)nn3cc(C(C)(C)C#N)cnc23)CC1 [I-N-76, 2-amino-6-(2-cyanopropan-2-yl)-N-(4-(4-methylpiperazin-1-yl)pyridin-3-yl)pyrazolo[1,5-a]pyrimidine-3-carboxamide]",+++ (Compounds with a Cisplatin sensitization value of <0.02 μM are marked with “+++.”)
20,"N#CCc1cnc2c(C(=O)Nc3cnccc3N3CCCC3)c(N)nn2c1 [I-N-77, 2-amino-6-(cyanomethyl)-N-(4-(pyrrolidin-1-yl)pyridin-3-yl)pyrazolo[1,5-a]pyrimidine-3-carboxamide]",+ (Compounds with a Cisplatin sensitization value >0.2 μM but <5 μM are marked with “+.”)
